Results: article PMC11833358 (Food Chemistry: X, 2025)
Where “and” joins values, the source holds several entries; their conditions need not be identical. Equal values may be shown once. Marks after values point to notes of the source that are not given here.

Tests used:
Caco-2 cell monolayer [1] = conditions: for ER (efflux ratio, Papp(BL→AP)/Papp(AP→BL)) / Papp (AP→BL) / Papp (BL→AP): constituent of DS 100 μg/mL, 180 min; for Papp (AP→BL) / Papp (BL→AP): from UPLC-ESI-MS/MS peak areas
in vitro = conditions: human, Caco-2
Caco-2 cell monolayer [2] = conditions: literature report; ref Chen et al., 2021; cited from earlier work
Caco-2 cell monolayer [3] = experiment: Phenol red flux and apparent permeability across Caco-2 cell monolayer; format: in vitro ADME, human; conditions: AP→BL, 60 min, 5 μg/mL phenol red

Row | Compound | Papp (AP→BL) (Caco-2 cell monolayer [1]) | Papp A→B at 180 min, 100 μg/mL (in vitro) [×10⁻⁶ cm/s] | Papp B→A at 180 min, 100 μg/mL (in vitro) [×10⁻⁶ cm/s] | other results
1 | 5,2′-Dihydroxy-7,8-dimethoxyflavone glycoside | 3.05 10^−6 cm/s | – | – | ER (efflux ratio, Papp(BL→AP)/Papp(AP→BL)) (Caco-2 cell monolayer [1]): 2.29; Papp (BL→AP) (Caco-2 cell monolayer [1]): 6.97 10^−6 cm/s
2 | COc1cc(-c2oc3cc(O)c(OC)c(O)c3c(=O)c2OC)cc(OC)c1O [5,7,4′-Trihydroxy-3,6,3′,5′-tetramethoxyflavone] | – | 3.24 | 23.1 | Differential metabolite TSA vs. TSB (Caco-2 cell monolayer [1]; VIP ≥ 1, p < 0.05, fold change >2.0 or < 0.5): upregulated; efflux ratio at 180 min, 100 μg/mL (in vitro): 7.13
3 | COc1ccc2c(c1)OCC(=Cc1cccnc1)C2=O [7-Methoxy-3-[1-(3-pyridyl)methylidene]-4-chromanone] | 20.87 10^−6 cm/s | – | 2.81 | efflux ratio at 180 min, 100 μg/mL (in vitro): 0.13
4 | COc1cc(C[C@H]2C(=O)OC[C@@H]2Cc2ccc(OC)c(OC)c2)ccc1O [Arctigenin] | – | 5.37 | 25.2 | efflux ratio at 180 min, 100 μg/mL (in vitro): 4.69
5 | O=c1c(O[C@@H]2O[C@H](CO)[C@@H](O)[C@H](O)[C@H]2O)c(-c2ccc(O)cc2)oc2cc(O)cc(O)c12 [Astragalin] | – | 0.78 | 4.26 | –
6 | COc1cc([C@@H]2Oc3c(OC)cc(CCCO)cc3[C@H]2CO)ccc1O [Dihydrodehydrodiconiferyl alcohol] | – | 3.24 | 18.3 | –
7 | O=S1(=O)OC(c2ccc(O)cc2)(c2ccc(O)cc2)c2ccccc21 [Phenol red] | – | – | – | Phenol red flux QBL (Caco-2 cell monolayer [3]; cell culture time 3 days): 4.18 ± 0.43^a μg; Phenol red flux QBL (Caco-2 cell monolayer [3]; cell culture time 6 days): 1.94 ± 0.70^b μg; Phenol red flux QBL (Caco-2 cell monolayer [3]; cell culture time 9 days): 1.36 ± 0.44^bc μg; Phenol red flux QBL (Caco-2 cell monolayer [3]; cell culture time 12 days): 0.88 ± 0.15^cd μg; Phenol red flux QBL (Caco-2 cell monolayer [3]; cell culture time 15 days): 0.49 ± 0.21 μg and 0.49 ± 0.21^d μg; Phenol red flux QBL (Caco-2 cell monolayer [3]; cell culture time 18 days): 0.40 ± 0.09^d μg; Phenol red flux QBL (Caco-2 cell monolayer [3]; cell culture time 21 days): 0.37 ± 0.07^d μg

Now from value to compound, other results behind:

Row | Papp (AP→BL) (Caco-2 cell monolayer [1]) | Papp A→B at 180 min, 100 μg/mL (in vitro) [×10⁻⁶ cm/s] | Papp B→A at 180 min, 100 μg/mL (in vitro) [×10⁻⁶ cm/s] | Compound | other results
8 | – | 2.17 | 17.3 | COc1ccc(-c2cc(=O)c3c(O)c(OC)c(OC)cc3o2)cc1O [Eupatorin] | –
9 | 17.37 10^−6 cm/s | – | – | COc1cc(/C=C/C(=O)O)ccc1O [Ferulic acid] | ER (efflux ratio, Papp(BL→AP)/Papp(AP→BL)) (Caco-2 cell monolayer [1]): 2.25; Papp (BL→AP) (Caco-2 cell monolayer [1]): 39.16 10^−6 cm/s; Mode of translocation (Caco-2 cell monolayer [2]): active transport
10 | 24.51 10^−6 cm/s | – | 49.5 | COc1ccc(/C=C/C(=O)O)cc1O [Isoferulic acid] | –
11 | – | 3.5 | 23.2 | COc1cc(O)c(CC=C(C)C)c2c1C(=O)CC(c1ccc(O)cc1)O2 (stereo not drawn) [Isoxanthohumol] | Mode of translocation (Caco-2 cell monolayer [2]): active transport
12 | – | 8.89 | 19.4 | CC(=O)Oc1ccccc1 [Phenyl acetate] | –
13 | – | 1.63 | 9.89 | O=c1c(-c2ccc(O[C@@H]3O[C@H](CO)[C@@H](O)[C@H](O)[C@H]3O)cc2)coc2cc(O)cc(O)c12 [Sophoricoside] | –
